One may read the EC50 as the concentration needed to bring the measured effect to its halfway point. A higher EC50 goes with a less potent agent.

Each structure is given as a SMILES string.

The subject of test [1] is Canis familiaris. The test is described as follows: Effect on cholesterol lowering in male Beagle dog at an oral dose of 0.01 mkd for 15 days.
Test [2] concerns Canis familiaris. The test is described as follows: Effect on cholesterol lowering in male Beagle dog at an oral dose of 0.01 mkd for 10 days.
The test system of test [3] is Canis familiaris. The test is described as follows: Effect on cholesterol lowering in male Beagle dog at an oral dose of 0.3 mkd for 3 days.
The subject of test [4] is Canis familiaris. The test is described as follows: Effect on cholesterol lowering in male Beagle dog at an oral dose of 0.3 mkd for 15 days with 4 mkd simavastatin.
Test [5] concerns the target T1, Peroxisome proliferator-activated receptor alpha (Canis lupus familiaris, UniProt Q95N78).
T1 sequence (Q95N78 whole entry): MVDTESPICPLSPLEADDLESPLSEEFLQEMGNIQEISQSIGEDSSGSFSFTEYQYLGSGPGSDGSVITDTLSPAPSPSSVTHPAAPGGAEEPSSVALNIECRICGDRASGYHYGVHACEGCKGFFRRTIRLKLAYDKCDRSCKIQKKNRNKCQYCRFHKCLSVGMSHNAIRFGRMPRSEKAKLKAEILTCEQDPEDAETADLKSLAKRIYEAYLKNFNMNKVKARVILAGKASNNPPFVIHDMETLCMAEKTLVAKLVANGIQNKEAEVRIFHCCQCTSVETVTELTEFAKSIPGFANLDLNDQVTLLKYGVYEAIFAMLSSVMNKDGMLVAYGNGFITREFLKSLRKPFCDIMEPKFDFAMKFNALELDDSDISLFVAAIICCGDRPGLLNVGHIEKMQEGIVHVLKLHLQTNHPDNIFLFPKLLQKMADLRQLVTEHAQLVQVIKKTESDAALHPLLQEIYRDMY
The test is described as follows: Effective concentration against canine PPAR-alpha in Gal4 transactivation assay.

Test [6] deals with Cricetinae gen. sp. Description: Effect at an oral dose of 0.1 mg/kg/day for 14 days on serum triglyceride level of hamster. It is filed as functional, Cricetulus griseus.

As to `CC[C@@]1(C(=O)O)Cc2cc(OCCCOc3ccc(OC(F)(F)F)cc3Cl)ccc2O1`, the TC is -21% in test [1], -11.7% in test [2], -10.1% in test [3] and -39.7% in test [4]. The compound further came in with an EC50 in test [5] of 2 nM. Also, the TG in test [6] is listed as -11.78%.

The values above are taken from ChEMBL document CHEMBL1144356 (J Med Chem, 2005).
